We go through 56 compounds from article PMC12040169 (PLOS Biology, 2025).

This data set is described as follows: in vitro. As to conditions: human, hela cells, % viability.
In the case of `CC1(C)CCN(Cc2nnnn2-c2ccc(S(C)(=O)=O)cc2)C1` [CBK306179], the viability (as a rule, a read-out of living cells in per cent, often relative to untreated cells) at 28.5 h, 10 µM amounted to 94.7%.

Turning to `O=c1[nH]c(=O)c2cc(S(=O)(=O)Nc3ccc(Cn4ccnc4)cc3)ccc2[nH]1` [CBK286383], the viability at 28.5 h, 10 µM came to 105%.

In the case of `CN(CC(F)(F)F)C(=O)CCc1nc(-c2cccs2)no1` [CBK282215], the viability at 28.5 h, 10 µM came out at 89.8%.

Turning to `CCNC(=S)NC1CC[C@@]2(C3=CC=CC4C=CC=CC34)CCN(C)[C@H]2C1` (some centres unmarked) [CBK003596C], the viability at 28.5 h, 10 µM was found to be 91.7%.

Regarding `O=C(N[C@@H](Cn1cc(Cl)c(=O)[nH]c1=O)C(=O)O)C1CCC1` [CBK289659], the viability at 28.5 h, 10 µM turned out to be 89.2%.

For `COc1ccc(C)cc1-n1ccc(C(=O)NC(C)(C)C)n1` [CBK306315], the viability at 28.5 h, 10 µM is 78.8%.

Consider `COc1ccc(C)cc1S(=O)(=O)N(CC(=O)O)Cc1ccccc1` [CBK267847], for which the viability at 28.5 h, 10 µM was determined as 108%.

Regarding `Oc1ccc(Br)cc1CN1CCN(Cc2cccc3ccccc23)CC1` [CBK263662], the viability at 28.5 h, 10 µM was 87%.

Consider `CC(C)(CSc1ncccn1)NS(=O)(=O)c1ccccc1` [CBK268282], for which the viability at 28.5 h, 10 µM turned out to be 88.3%.

Take `O=C(Nc1cccc2nsnc12)c1ccc(-c2ccc(Br)cc2)o1` [CBK263752]: the viability at 28.5 h, 10 µM was 95.9%.

On to `Fc1cnc(N2CCCC3(CCOC3)C2)nc1N1CCOCC1` (centres unmarked) [CBK307131], for which the viability at 28.5 h, 10 µM came to 84.5%.

For the compound `Cc1cc(NS(=O)(=O)c2csc3ccccc23)n(C)n1` [CBK067251], the viability at 28.5 h, 10 µM turned out to be 89.5%.

In the case of `Nc1nc(SCC(=O)NCCCO)nc2sc3c(c12)CCCC3` [CBK057958], the viability at 28.5 h, 10 µM was determined as 87.8%.

With `Cc1ccc2nc(CNC(=O)CN(C)C3CCNCC3)cn2c1` [CBK307228], the viability at 28.5 h, 10 µM worked out at 96.6%.

Turning to `Cc1cc(F)ccc1C(=O)NCC1CCN(c2cnn(C)c(=O)c2)C1` (centres unmarked) [CBK307097], the viability at 28.5 h, 10 µM turned out to be 112%.

With `CCn1c(CN2CC(n3nc(C)cc3C)C2)nc2c(F)cccc21` [CBK306220], the viability at 28.5 h, 10 µM was determined as 82%.

Regarding `CC(=O)C1=C(O)C(=O)N(CC(=O)O)C1c1cccc([N+](=O)[O-])c1` (centres unmarked) [CBK262921], the viability at 28.5 h, 10 µM was determined as 97.4%.

Regarding `CCN(CC)CCNC(=O)c1c(C)oc2cc(Br)c(OC)cc12` [CBK018064], the viability at 28.5 h, 10 µM was found to be 87.3%.

As to `COc1cccc(CN2CC[C@@H]3[C@H](C2)[C@@H](c2ccc(F)cc2)CN3C(=O)c2ccccc2)c1` [CBK286292], the viability at 28.5 h, 10 µM was 107%.

For the compound `O=C1CCC(=O)N1CCOc1nccnc1N1CCN(Cc2ccccc2F)CC1` [CBK084289], the viability at 28.5 h, 10 µM was 97.8%.

`Cc1cccc(C)c1OCC(=O)Nc1cccc(Oc2ccc3c(c2)C(=O)N(c2ccccc2)C3=O)c1` [CBK265499]: the viability at 28.5 h, 10 µM came to 100%.

For `CSCCN1CCN(c2nccnc2Oc2ccc(F)cc2)CC1` [CBK083028T], the viability at 28.5 h, 10 µM amounted to 93.2%.

On to `O=C(N/N=C\c1ccccc1C(F)(F)F)c1ccc(=O)[nH]n1` [CBK263389], for which the viability at 28.5 h, 10 µM was 100%.

Consider `Cc1nc2ncccn2c1-c1csc(Nc2ccc(S(N)(=O)=O)cc2)n1` [CBK263294B], for which the viability at 28.5 h, 10 µM was 84.8%.

Regarding `O=C(Cc1ccccc1[N+](=O)[O-])NNC(=S)Nc1ccc(F)c(Cl)c1` [CBK266904], the viability at 28.5 h, 10 µM was 101%.

For the compound `COC(=O)CC1CCC(NC(=O)C(F)(F)F)CC1` (centres unmarked) [CBK009129], the viability at 28.5 h, 10 µM worked out at 97.4%.

Regarding `COc1ccc(C(C)C)cc1-c1cncc(N2CCN(Cc3ccccn3)CC2)n1` [CBK065792], the viability at 28.5 h, 10 µM is 88.6%.

On to `Cc1c(C(=O)O)sc2nc(SCC(=O)NCc3ccccc3)[nH]c(=O)c12` [CBK287609], for which the viability at 28.5 h, 10 µM was 94.2%.

Regarding `COc1cc(C(=O)N2CCC3(CC2)CC(=O)c2ccc(-c4ccccc4)cc2O3)cc(OC)c1C` [CBK169037], the viability at 28.5 h, 10 µM stood at 89.9%.

For `Cc1nnc(-c2cccc(S(=O)(=O)Nc3nnc(C(F)(F)F)s3)c2)o1` [CBK062014], the viability at 28.5 h, 10 µM stood at 99.1%.

As to `O=C(Nc1cc([N+](=O)[O-])ccc1O)c1ccc2c(c1)C(=O)N(Cc1cccnc1)C2=O` [CBK266770], the viability at 28.5 h, 10 µM amounted to 92.7%.

As for `CC(C)(C)OC(=O)N1CCC(OCc2cn(-c3ccc(S(C)(=O)=O)cc3)nn2)CC1` [CBK149478], the viability at 28.5 h, 10 µM turned out to be 98.1%.

For `COc1cc(/C=N/NC(=O)c2cccc([N+](=O)[O-])c2)cc(OC)c1O` [CBK262172], the viability at 28.5 h, 10 µM amounted to 83.1%.

Turning to `CSCCN1CCC2(CC1)CN(C(=O)C(C)C)c1ccccc12` [CBK131473], the viability at 28.5 h, 10 µM came to 101%.

Regarding `Nc1ncc(-c2cccc(OC(F)(F)F)c2)nc1N1CCN(CCO)CC1` [CBK063435], the viability at 28.5 h, 10 µM came out at 94.9%.

`CC(=O)Nc1ccc(CN2CCCC(c3cc4ncccc4[nH]3)C2)cc1` (centres unmarked) [CBK283402]: the viability at 28.5 h, 10 µM was 92.4%.

For the compound `CC(C)NC(=O)N1C[C@@H]2C[C@H](C1)c1ccc(-c3cccnc3)c(=O)n1C2` [CBK289184], the viability at 28.5 h, 10 µM came out at 97.5%.

Regarding `O=C(CC(C(=O)O)P(=O)(c1ccccc1)c1ccccc1)c1ccccc1` (centres unmarked) [CBK264971], the viability at 28.5 h, 10 µM was found to be 114%.

For `CCNC(=O)/N=C(/N)Nc1nc2ccccc2s1` [CBK028890], the viability at 28.5 h, 10 µM worked out at 72.1%.

Consider `O=C(Nc1ccc(N2CCN(Cc3ccccc3F)CC2)cc1)c1cc2ccccc2o1` [CBK267210], for which the viability at 28.5 h, 10 µM was 87.4%.

Regarding `Cc1ccc(SCCNC(=O)C(C)Sc2ccc(Cl)cc2)cc1` (centres unmarked) [CBK264104], the viability at 28.5 h, 10 µM came out at 93.5%.

On to `NC(=O)c1ccc(-c2ccc(/C=C3/C(=O)NN(c4ccc(F)cc4)C3=O)o2)cc1` [CBK098345], for which the viability at 28.5 h, 10 µM stood at 89.9%.

As for `O=C(CCc1ccccc1F)NC1CCc2nccn2C1` (centres unmarked) [CBK306124], the viability at 28.5 h, 10 µM was 113%.

As for `CCOc1ncccc1C(=O)NCc1ccc(NC(N)=O)cc1` [CBK279382], the viability at 28.5 h, 10 µM was 111%.

On to `O=C(c1ccco1)N1CCN(Cc2nc3ccccc3c(=O)n2-c2ccc(F)cc2)CC1` [CBK267226], for which the viability at 28.5 h, 10 µM was determined as 94.3%.

On to `Nc1nc2ccccc2cc1-c1cccs1` [CBK112549], for which the viability at 28.5 h, 10 µM came out at 100%.

Take `COc1ccc(C(NC(=O)C2CCN(S(C)(=O)=O)CC2)c2ccccc2C)cn1` (centres unmarked) [CBK059738]: the viability at 28.5 h, 10 µM turned out to be 104%.

`CC(C)CNc1nccnc1-c1ccc(Cl)cc1` [CBK088738]: the viability at 28.5 h, 10 µM was found to be 91.3%.

Take `COC(=O)c1cc(S(N)(=O)=O)c(C)o1` [CBK113185]: the viability at 28.5 h, 10 µM was 104%.

Regarding `COc1ccc(OC)c(CN(C(=O)c2oc3ccc(F)cc3c2C)c2cnn(C)c2)c1` [CBK298278], the viability at 28.5 h, 10 µM was 89.1%.

As for `Cn1ncc(C#N)c1NC(=O)C1CC(c2ccc(Cl)c(Cl)c2)=NO1` (centres unmarked) [CBK267478], the viability at 28.5 h, 10 µM stood at 93.7%.

For `CC(C)C(=O)N1C[C@@H](N(C)C)[C@H](c2cn(C)c3ccccc23)C1` [CBK282717], the viability at 28.5 h, 10 µM amounted to 91.2%.

For `O=C(NCc1ccc(Cl)cc1)N(Cc1cccnc1)Cc1ccc2c(c1)OCO2` [CBK159449], the viability at 28.5 h, 10 µM came to 97%.

Regarding `Fc1ccccc1COc1cccc(CNCc2ccccn2)c1` [CBK268552C], the viability at 28.5 h, 10 µM was 101%.

In the case of `O=C(Nc1ccc2oc(-c3cccnc3)nc2c1)c1cc([N+](=O)[O-])ccc1N1CCOCC1` [CBK268674], the viability at 28.5 h, 10 µM amounted to 95%.

On to `O=C(COc1ccc(Cl)cc1Cl)OCCNC1=NS(=O)(=O)c2ccccc21` [CBK264905], for which the viability at 28.5 h, 10 µM was determined as 110%.
